In patent publication US12357711B2, “PSMA binding dual mode radiotracer and therapeutic” (Technische Universität München, priority 2019, dated 2025):

System: SCID mice
Assay: Preclinical dosimetry from biodistribution in mice, extrapolated to 70-kg Standard Adult (OLINDA/EXM 1.0)
Type: in vivo
Conditions: 1.0 h bladder voiding interval
Description: 3-5 mice were injected per timepoint with a mean 25.6±3.6 MBq of 18F-rhPSMA-7 and 28.5±4.8 MBq of 18F-rhPSMA-7.3, respectively. Mice, severe combined immunodeficiency (SCID) were used for the experiments.
Mice were sacrificed at the following timepoints: • ^18F-rhPSMA-7: 10, 20, 40, 60, 120 and 180 minutes after administration. • ^18F-rhPSMA-7.3: 10, 60, 120, 180 and 300 minutes after administration.
Urine, blood, heart, lung, spleen, pancreas, liver, stomach (emptied), small intestine (emptied), large intestine (emptied), kidneys, bladder, testis, fat, muscle (partial, femoral), femur, tail and brain. Urine was collected with a pipette in the CO2 gas chamber. In case of missing urination in the chamber the bladder was aspirated with an insulin syringe. Blood was withdrawn instantly after sacrifice with an insulin syringe from the heart. All other tissues and organs were dissected and transferred directly in plastic containers.
The counting rates of measurement samples were automatically corrected for decay. The radioactivity distribution ratios (unit: percentage of the injected dose (% ID) in the measurement samples were determined using the equation below. The sum of the counting rates from all measurement samples obtained from one mouse was designated as the counting rate for administrated radioactivity.
The radioactivity distribution ratio per unit weight of the measurement sample (unit: % ID/g) excluding urine and feces samples was determined by using the equation below. The weight of the measurement sample was determined by subtraction of the empty measurement container from the container including the sample.
For consistency of statistical calculations for each radiotracer the same number of time-points for ^18F-rhPSMA-7 and ^18F-rhPSMA-7.3 was used. Therefore, for ^18F-rhPSMA-7 the 10 min and 20 min time points were combined creating a 15 min endpoint.
The time-integral of activity for the accumulation in the significant source organs (AUCs) were generated both with numerical integration and physical decay according to J Juan et al., Journal of Pharmaceutical Sciences, 1993, 82:762-763.
In brief, to calculate a human dosimetry from the biodistribution in the mice, an extrapolation was necessary to account for the differences between the animals and humans. Normal-organ radiation doses were estimated for the 70-kg Standard Adult anatomic model using time-depending organ activity concentrations (in percent of the injected dose per gram, % ID/g) and total-body activities measured in the biodistribution studies in mice.
Tissue activity concentrations in mice were converted to tissue fractional activities in the 70-kg Standard Adult using the relative fractional organ masses in the Standard Adult and the “standard” 25-gramm mouse. Time-dependent total-body activity was fit to an exponential function and the difference between the injected activity and the total-body activity was assumed to be excreted to the urine because activity concentrations in the liver and GI tracer were low at all time points studied.
Organ residence time was calculated by numerical integration using the trapezoidal rule and the rest-of-body ^18F residence times was calculated as the difference between the total-body residence time and the sum of the organ and urine residence times. The bladder contents residence time was estimated using the dynamic voiding model in the OLINDA/EXM 1.0 dosimetry software. Finally, the Standard Adult mean organ dose equivalents (in mSv/MBq) and effective dose (also in mSv/MBq) were then calculated using OLIN DA/EXM 1.0.
Final calculation of radiation absorbed dose and dosimetry from biodistribution in mice: The tissues or organs in which a significant accumulation of radioactivity occurs (i.e., source organ) were kidney, spleen, lung, liver and heart. With respect to activity accumulation and clearance, a rapid clearance from blood and clearance to urine but relatively slow build-up in kidney was found.

[^19F][^natGa]D/L-Dap-R/S-DOTAGA-rhPSMA7 [rhPSMA7-rac]
Adrenals ED Cont.: 3.79E−05 mSv/MBq | Adrenals EDE Cont.: 0.00E000 mSv/MBq | Adrenals dose Alpha: 0.00E000 mSv/MBq | Adrenals dose Beta: 1.95E−03 mSv/MBq | Adrenals dose Photon: 5.64E−03 mSv/MBq | Adrenals dose Total: 7.59E−03 mSv/MBq | Brain ED Cont.: 2.24E−05 mSv/MBq | Brain EDE Cont.: 0.00E000 mSv/MBq | Brain dose Alpha: 0.00E000 mSv/MBq | Brain dose Beta: 1.95E−03 mSv/MBq | Brain dose Photon: 2.54E−03 mSv/MBq | Brain dose Total: 4.49E−03 mSv/MBq | Breasts ED Cont.: 2.10E−04 mSv/MBq | Breasts EDE Cont.: 6.30E−04 mSv/MBq | Breasts dose Alpha: 0.00E000 mSv/MBq | Breasts dose Beta: 1.95E−03 mSv/MBq | Breasts dose Photon: 2.25E−03 mSv/MBq | Breasts dose Total: 4.20E−03 mSv/MBq | Gallbladder Wall ED Cont.: 0.00E000 mSv/MBq | Gallbladder Wall EDE Cont.: 0.00E000 mSv/MBq | Gallbladder Wall dose Alpha: 0.00E000 mSv/MBq | Gallbladder Wall dose Beta: 1.95E−03 mSv/MBq | Gallbladder Wall dose Photon: 4.96E−03 mSv/MBq | Gallbladder Wall dose Total: 6.91E−03 mSv/MBq | Heart Wall ED Cont.: 0.00E000 mSv/MBq | Heart Wall EDE Cont.: 0.00E000 mSv/MBq | Heart Wall dose Alpha: 0.00E000 mSv/MBq | Heart Wall dose Beta: 8.82E−04 mSv/MBq | Heart Wall dose Photon: 3.48E−03 mSv/MBq | Heart Wall dose Total: 4.36E−03 mSv/MBq | Kidneys ED Cont.: 3.23E−04 mSv/MBq | Kidneys EDE Cont.: 3.88E−03 mSv/MBq | Kidneys dose Alpha: 0.00E000 mSv/MBq | Kidneys dose Beta: 4.70E−02 mSv/MBq | Kidneys dose Photon: 1.76E−02 mSv/MBq | Kidneys dose Total: 6.47E−02 mSv/MBq | LLI Wall ED Cont.: 1.10E−03 mSv/MBq | LLI Wall EDE Cont.: 5.52E−04 mSv/MBq | LLI Wall dose Alpha: 0.00E000 mSv/MBq | LLI Wall dose Beta: 1.95E−03 mSv/MBq | LLI Wall dose Photon: 7.25E−03 mSv/MBq | LLI Wall dose Total: 9.20E−03 mSv/MBq | Liver ED Cont.: 2.01E−04 mSv/MBq | Liver EDE Cont.: 0.00E000 mSv/MBq | Liver dose Alpha: 0.00E000 mSv/MBq | Liver dose Beta: 6.35E−04 mSv/MBq | Liver dose Photon: 3.39E−03 mSv/MBq | Liver dose Total: 4.02E−03 mSv/MBq | Lungs ED Cont.: 5.11E−04 mSv/MBq | Lungs EDE Cont.: 5.11E−04 mSv/MBq | Lungs dose Alpha: 0.00E000 mSv/MBq | Lungs dose Beta: 1.25E−03 mSv/MBq | Lungs dose Photon: 3.01E−03 mSv/MBq | Lungs dose Total: 4.26E−03 mSv/MBq | Muscle ED Cont.: 2.98E−05 mSv/MBq | Muscle EDE Cont.: 0.00E000 mSv/MBq | Muscle dose Alpha: 0.00E000 mSv/MBq | Muscle dose Beta: 1.95E−03 mSv/MBq | Muscle dose Photon: 4.01E−03 mSv/MBq | Muscle dose Total: 5.96E−03 mSv/MBq | Osteogenic Cells ED Cont.: 8.27E−05 mSv/MBq | Osteogenic Cells EDE Cont.: 2.48E−04 mSv/MBq | Osteogenic Cells dose Alpha: 0.00E000 mSv/MBq | Osteogenic Cells dose Beta: 4.18E−03 mSv/MBq | Osteogenic Cells dose Photon: 4.09E−03 mSv/MBq | Osteogenic Cells dose Total: 8.27E−03 mSv/MBq | Ovaries ED Cont.: 1.83E−03 mSv/MBq | Ovaries EDE Cont.: 2.29E−03 mSv/MBq | Ovaries dose Alpha: 0.00E000 mSv/MBq | Ovaries dose Beta: 1.95E−03 mSv/MBq | Ovaries dose Photon: 7.21E−03 mSv/MBq | Ovaries dose Total: 9.16E−03 mSv/MBq | Pancreas ED Cont.: 3.90E−05 mSv/MBq | Pancreas EDE Cont.: 0.00E000 mSv/MBq | Pancreas dose Alpha: 0.00E000 mSv/MBq | Pancreas dose Beta: 1.95E−03 mSv/MBq | Pancreas dose Photon: 5.86E−03 mSv/MBq | Pancreas dose Total: 7.80E−03 mSv/MBq | Red Marrow ED Cont.: 6.82E−04 mSv/MBq | Red Marrow EDE Cont.: 6.82E−04 mSv/MBq | Red Marrow dose Alpha: 0.00E000 mSv/MBq | Red Marrow dose Beta: 1.39E−03 mSv/MBq | Red Marrow dose Photon: 4.29E−03 mSv/MBq | Red Marrow dose Total: 5.68E−03 mSv/MBq | Skin ED Cont.: 4.32E−05 mSv/MBq | Skin EDE Cont.: 0.00E000 mSv/MBq | Skin dose Alpha: 0.00E000 mSv/MBq | Skin dose Beta: 1.95E−03 mSv/MBq | Skin dose Photon: 2.38E−03 mSv/MBq | Skin dose Total: 4.32E−03 mSv/MBq | Small Intestine ED Cont.: 3.87E−05 mSv/MBq | Small Intestine EDE Cont.: 0.00E000 mSv/MBq | Small Intestine dose Alpha: 0.00E000 mSv/MBq | Small Intestine dose Beta: 1.95E−03 mSv/MBq | Small Intestine dose Photon: 5.79E−03 mSv/MBq | Small Intestine dose Total: 7.73E−03 mSv/MBq | Spleen ED Cont.: 1.29E−04 mSv/MBq | Spleen EDE Cont.: 1.55E−03 mSv/MBq | Spleen dose Alpha: 0.00E000 mSv/MBq | Spleen dose Beta: 1.59E−02 mSv/MBq | Spleen dose Photon: 9.90E−03 mSv/MBq | Spleen dose Total: 2.58E−02 mSv/MBq | Stomach Wall ED Cont.: 7.98E−04 mSv/MBq | Stomach Wall EDE Cont.: 0.00E000 mSv/MBq | Stomach Wall dose Alpha: 0.00E000 mSv/MBq | Stomach Wall dose Beta: 1.95E−03 mSv/MBq | Stomach Wall dose Photon: 4.70E−03 mSv/MBq | Stomach Wall dose Total: 6.65E−03 mSv/MBq | Testes ED Cont.: 0.00E000 mSv/MBq | Testes EDE Cont.: 0.00E000 mSv/MBq | Testes dose Alpha: 0.00E000 mSv/MBq | Testes dose Beta: 1.95E−03 mSv/MBq | Testes dose Photon: 5.09E−03 mSv/MBq | Testes dose Total: 7.03E−03 mSv/MBq | Thymus ED Cont.: 2.57E−05 mSv/MBq | Thymus EDE Cont.: 0.00E000 mSv/MBq | Thymus dose Alpha: 0.00E000 mSv/MBq | Thymus dose Beta: 1.95E−03 mSv/MBq | Thymus dose Photon: 3.20E−03 mSv/MBq | Thymus dose Total: 5.15E−03 mSv/MBq | Thyroid ED Cont.: 2.59E−04 mSv/MBq | Thyroid EDE Cont.: 1.55E−04 mSv/MBq | Thyroid dose Alpha: 0.00E000 mSv/MBq | Thyroid dose Beta: 1.95E−03 mSv/MBq | Thyroid dose Photon: 3.23E−03 mSv/MBq | Thyroid dose Total: 5.17E−03 mSv/MBq | Total Body ED Cont.: 0.00E000 mSv/MBq | Total Body EDE Cont.: 0.00E000 mSv/MBq | Total Body dose Alpha: 0.00E000 mSv/MBq | Total Body dose Beta: 2.27E−03 mSv/MBq | Total Body dose Photon: 3.93E−03 mSv/MBq | Total Body dose Total: 6.19E−03 mSv/MBq | ULI Wall ED Cont.: 3.64E−05 mSv/MBq | ULI Wall EDE Cont.: 0.00E000 mSv/MBq | ULI Wall dose Alpha: 0.00E000 mSv/MBq | ULI Wall dose Beta: 1.95E−03 mSv/MBq | ULI Wall dose Photon: 5.33E−03 mSv/MBq | ULI Wall dose Total: 7.27E−03 mSv/MBq | Urinary Bladder Wall ED Cont.: 5.76E−03 mSv/MBq | Urinary Bladder Wall EDE Cont.: 6.92E−03 mSv/MBq | Urinary Bladder Wall dose Alpha: 0.00E000 mSv/MBq | Urinary Bladder Wall dose Beta: 7.87E−02 mSv/MBq | Urinary Bladder Wall dose Photon: 3.66E−02 mSv/MBq | Urinary Bladder Wall dose Total: 1.15 E−01 mSv/MBq | Uterus ED Cont.: 6.56E−05 mSv/MBq | Uterus EDE Cont.: 7.87E−04 mSv/MBq | Uterus dose Alpha: 0.00E000 mSv/MBq | Uterus dose Beta: 1.95E−03 mSv/MBq | Uterus dose Photon: 1.12E−02 mSv/MBq | Uterus dose Total: 1.31E−02 mSv/MBq
